What is called pKi is the Ki on a negative log10 scale, so that one unit is a factor of ten. High values mean a small Ki, low ones a large Ki.

In ChEMBL document CHEMBL1153927, “Benzimidazolone-based serotonin 5-HT1A or 5-HT7R ligands: synthesis and biological evaluation” (Bioorg Med Chem Lett, 2009) one finds Ki data, which are given here for 23 compounds.

Structures are written as SMILES. pKi: −log10 of the molar value.

Assay [1] has as its target 5-hydroxytryptamine receptor 7 (Homo sapiens, UniProt P34969). Kind of assay: Inhibition of human 5HT7 receptor expressed in HEK293 cells by competitive binding assay. The assay is classed as cell-based.
Assay [2] deals with T1, 5-hydroxytryptamine receptor 1A (Rattus norvegicus, UniProt P19327).
T1 sequence (P19327 whole entry): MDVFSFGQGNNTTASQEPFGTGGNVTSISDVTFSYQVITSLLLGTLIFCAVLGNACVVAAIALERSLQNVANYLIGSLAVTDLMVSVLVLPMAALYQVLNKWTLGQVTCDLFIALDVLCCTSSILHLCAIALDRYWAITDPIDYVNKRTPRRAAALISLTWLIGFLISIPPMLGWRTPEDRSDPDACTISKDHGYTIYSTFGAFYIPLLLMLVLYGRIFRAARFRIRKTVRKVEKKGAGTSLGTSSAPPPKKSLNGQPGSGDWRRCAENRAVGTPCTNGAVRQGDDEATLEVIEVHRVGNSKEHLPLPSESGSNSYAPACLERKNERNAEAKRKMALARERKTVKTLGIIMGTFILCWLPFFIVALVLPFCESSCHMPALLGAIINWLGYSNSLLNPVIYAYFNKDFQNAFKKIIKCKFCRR
Kind of assay: Inhibition of rat hippocampus 5HT1A receptor by competitive binding assay. It counts as tissue-based.

Sequence of 5-hydroxytryptamine receptor 7 (P34969 whole entry): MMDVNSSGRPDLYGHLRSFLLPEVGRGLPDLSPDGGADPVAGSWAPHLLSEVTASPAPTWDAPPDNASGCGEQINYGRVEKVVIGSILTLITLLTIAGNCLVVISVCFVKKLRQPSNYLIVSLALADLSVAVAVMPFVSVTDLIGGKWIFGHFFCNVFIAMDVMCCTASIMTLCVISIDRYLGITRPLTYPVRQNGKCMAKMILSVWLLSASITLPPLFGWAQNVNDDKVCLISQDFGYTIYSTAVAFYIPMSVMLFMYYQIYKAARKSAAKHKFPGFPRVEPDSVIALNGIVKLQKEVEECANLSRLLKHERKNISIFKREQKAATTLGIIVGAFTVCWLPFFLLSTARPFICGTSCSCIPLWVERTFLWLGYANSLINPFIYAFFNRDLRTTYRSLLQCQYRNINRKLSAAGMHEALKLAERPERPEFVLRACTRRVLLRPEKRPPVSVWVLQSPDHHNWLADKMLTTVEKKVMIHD

For `COc1ccccc1N1CCN(Cc2ccn(-c3ccccc3C)c2)CC1`, the pKi in assay [1] is 8.37. Regarding `O=c1n(CCN2CCN(c3ccccc3)CC2)c2ccccc2n1-c1ccccc1`, the pKi in assay [1] is 5.91; in assay [2], 6.33. `O=c1[nH]c2ccccc2n1CCCCN1CCN(c2ccccc2)CC1`: the pKi was 7.32 in assay [1] and 7.08 in assay [2]. For `COc1ccccc1N1CCN(CCCCn2c(=O)[nH]c3ccccc32)CC1` the same measures were 7.59 and 8.22. For `COc1ccccc1N1CCN(CCCCCn2c(=O)[nH]c3ccccc32)CC1`, the pKi in assay [1] was 7.42; in assay [2], 7.48. For `COc1ccc(-n2c(=O)n(CCN3CCN(c4ccccc4OC)CC3)c3ccccc32)cc1` the same measures were 6.53 and 7.66.

`COc1ccc(-n2c(=O)n(CCCN3CCN(c4ccccc4OC)CC3)c3ccccc32)cc1`: the pKi is 6.77 in assay [1] and 7.59 in assay [2]. For `COc1ccc(-n2c(=O)n(CCCCN3CCN(c4ccccc4OC)CC3)c3ccccc32)cc1` the same measures were 6.57 and 7.44. On to `COc1ccccc1N1CCN(CCn2c(=O)[nH]c3ccccc32)CC1`, for which the figures for the negative-log Ki (pKi) in assay [1] and in assay [2] were 5.74 and 7.60, respectively.

Regarding `COc1cccc(-n2c(=O)n(CCN3CCN(c4ccccc4)CC3)c3ccccc32)c1`, the values for the pKi in assay [1] and in assay [2] were 6.06 and 6.19, respectively. For `COc1ccc(-n2c(=O)n(CCN3CCN(c4ccccc4)CC3)c3ccccc32)cc1`, the pKi in assay [1] was 6.25; in assay [2], 6.47. The corresponding values for `Cc1ccccc1N1CCN(CCn2c(=O)n(-c3ccccc3)c3ccccc32)CC1` are 5.73 and 6.77. As to `Cc1ccccc1-n1c(=O)n(CCN2CCN(c3ccccc3)CC2)c2ccccc21`, the results for the pKi in assay [1] and in assay [2] were 6.04 and 6.20, respectively. As to `COc1ccccc1N1CCN(CCCn2c(=O)[nH]c3ccccc32)CC1`, the negative-log Ki (pKi) was 7.40 in assay [1] and 8.47 in assay [2].

Regarding `O=c1[nH]c2ccccc2n1CCCN1CCN(c2ccccc2)CC1`, the figures for the pKi in assay [1] and in assay [2] were 6.61 and 7.59, respectively. For the compound `O=c1[nH]c2ccccc2n1CCCCCCN1CCN(c2ccccc2)CC1`, the pKi in assay [1] was 7.70; in assay [2] it was 7.32. Turning to `O=c1[nH]c2ccccc2n1CCCCCN1CCN(c2cccc(Cl)c2)CC1`, the negative logarithm of the Ki (pKi) in assay [1] is 7.96; in assay [2], 7.18. As to `O=c1[nH]c2ccccc2n1CCN1CCN(c2ccccc2)CC1`, the values for the pKi in assay [1] and in assay [2] were 5.99 and 6.41, respectively. With `O=c1[nH]c2ccccc2n1CCCCCN1CCN(c2ccccc2)CC1`, the negative logarithm of the Ki (pKi) was 8.22 in assay [1] and 6.57 in assay [2]. The corresponding values for `COc1cccc(-n2c(=O)n(CCN3CCN(c4ccccc4C)CC3)c3ccccc32)c1` are 5.60 and 6.74. For `Cc1ccccc1N1CCN(CCn2c(=O)n(-c3ccccc3C)c3ccccc32)CC1` the same measures were 4.75 and 6.43.

As for `O=c1[nH]c2ccccc2n1CCCCCN1CCN(c2ccc(Cl)cc2)CC1`, the results for the pKi in assay [1] and in assay [2] were 8.15 and 6.34, respectively. For `COc1ccccc1N1CCN(CCCCCCn2c(=O)[nH]c3ccccc32)CC1` the same measures were 7.11 and 7.92.
